Test results as given in US20040039266A1, “Apparatus and method for measurement of biological structures” (priority 2000, published 2004).

Experiments:
[1] = system: 3rd order mesenteric arteries; assay: Absorption spectroscopy of agonist-induced vasoconstriction in pressurised rat mesenteric arteries; conditions: increasing concentrations; normotensive male Wistar rat arteries, 60 mmHg, 37° C., PSS
Description: 3rd order mesenteric arteries from normotensive male Wistar rats were set up in two perfusion chambers in normal physiological salt solution (PSS), at 37° C. and gassed with 95% O2/5% CO2. The vessels were pressurised to 60 mmHg and allowed to equilibrate for 30 minutes. Thereafter, one vessel acted as a control and the other vessel received increasing concentrations of the thromboxane A2 mimetic, U46619. Transmission spectra were recorded at one second intervals and analysed according to the methods described above.
The optical extinction model described above was used to accurately and continuously measure lumen diameter.

NOS = assay: Functional detection of NOS transfection in mouse mesenteric arteries by absorption spectroscopy
Description: Mouse 1st order mesenteric arteries are dissected out and maintained in Optimem I supplemented with 10% foetal bovine serum. cDNAs (for NOS) inserted into appropriate plasmids are mixed with LipofectAMINE according to the manufacturers instructions. Two arteries are set up in separate perfusion chambers; the first tissue (A) acts as a control (receives LipofectAMINE and plasmids without the cDNA insert), the second tissue (B) receives LipofectAMINE with plasmids containing the NOS cDNA insert. The arteries are exposed to the appropriate transfection solutions for 8 hours.
After 8 hours, the unit switches automatically and perfuses the vessels with normal PSS. Analysis of the lumen diameter via absorption spectroscopy begins, providing continual information on the contractile state of the artery.
Functional detection of NOS activity is achieved by way of a two-stage protocol. Firstly, concentration-response curves to ACh are conducted in both vessels. During the concentration-response curve, changes in the state of the blood vessels are continuously monitored by absorption spectroscopy. ACh selectively activates expressed NOS synthase and causes release of the vasodilator nitric oxide (NO). […] The control vessel should display little vasodilation to ACh, as NOS cDNA was not transfected in this tissue.
Both vessels are then perfused with normal PSS for thirty minutes. […]

CCCCC[C@H](O)/C=C/[C@@H]1[C@@H](C/C=C\CCCC(=O)O)[C@H]2CO[C@@H]1C2 [U46619]
vasoconstriction (change in lumen diameter) detected via shifts in transmission spectra [1]: vasoconstriction was detected

COC(=O)[C@@H](N)CCCNC(=N)N[N+](=O)[O-] [L-NAME]
effect on ACh responses (concentration response curve repeated in presence of inhibitor) (NOS; NOS cDNA-transfected mouse mesenteric artery): abolish further responses to ACh

CC(=O)OCC[N+](C)(C)C [ACh]
response of NOS cDNA-transfected blood vessel to ACh (NOS; concentration-response curve, NOS-knockout mouse 1st order mesenteric artery after 8 hours transfection): vasodilation
